pIC50: −log10 of the molar value. Like-named read-outs stand apart in the source and are kept apart here.

Here are results for 7 molecules from patent US20160016929A1, “PRO-DRUG COMPOUNDS” (PROXIMAGEN LIMITED, priority 2013, published 2016).

A short description of data set [1]: Solubility in aqueous solutions (Table 3). The data set is classed as physicochemical. The following applies: aqueous solution. The protocol: The skilled person understands that the pH of the gastrointestinal tract changes along its length. […] For more detail see, for example, Measurement of gastrointestinal pH profiles in normal ambulant human subjects, Gut. […] Improved solubility is expected to result in improved absorption, and therefore improved oral bioavailability.
In an embodiment prodrugs of the invention are administered intravenously. High prodrug solubility is advantageous in order to reduce the volume of solution administered to the patient, and to reduce the risk of damage to the circulatory system. Solubility of >10 mg/mL is preferred.

Data set [2] concerns the target T1, human ether a go-go related gene (hERG) K+ channel (Homo sapiens, UniProt Q12809).
T1 construct: a Chinese Hamster Lung cell line stably expressing the full length hERG channel; expressed in transfected cells; host or cells: Chinese Hamster Lung cell line
In words: hERG assay, IonWorks patch clamp electrophysiology. It is filed as cell-based. The following applies: Chinese Hamster Lung cell line stably expressing hERG; IonWorks Quattro. On the procedure:
(§1) Compounds of the invention were tested for inhibition of the human ether a go-go related gene (hERG) K^+ channel using IonWorks patch clamp electrophysiology. 8 Point concentration-response curves were generated on two occasions using 3-fold serial dilutions from the maximum assay concentration (33 uM). Electrophysiological recordings were made from a Chinese Hamster Lung cell line stably expressing the full length hERG channel. Single cell ion currents were measured in the perforated patch clamp configuration (100 ug/mL amphoterocin) at room temperature using an IonWorks Quattro instrument. The internal solution contained 140 mM KCl, 1 mM MgCl2, 1 mM EGTA and 20 mM HEPES and was buffered to pH 7.3. The external solution contained 138 mM NaCl, 2.7 mM KCl, 0.9 mM CaCl2, 0.5 mM MgCl2, 8 mM Na2HPO4 and 1.5 mM KH2PO4, and was buffered to pH 7.3. Cells were clamped at a holding potential of […] for 30 s and then stepped to +40 mV for 1 s. This was followed by a hyperpolarising step of 1 s to […] to evoke the hERG tail current. This sequence was repeated 5 times at a frequency of 0.25 Hz. Currents were measured from the tail step at the 5th pulse, and referenced to the holding current. Compounds were incubated for 6-7 min prior to a second measurement of the hERG signal using an identical pulse train. A minimum of 17 cells were required for each pIC50 curve fit. A control compound (quinidine) was used.

For data set [3], the target named is T2, hERG K+ channel (Homo sapiens, UniProt Q12809).
T2 construct: a Chinese Hamster Lung cell line stably expressing the full length hERG channel; expressed in transfected cells; host or cells: Chinese Hamster Lung cell line
Nature of the data set: hERG assay, IonWorks patch clamp electrophysiology. The settings on record: human, pH 7.3; 11 uM; Chinese Hamster Lung cell line stably expressing hERG. It is filed as cell-based. On the procedure:
as §1

The nature of data set [4]: Pharmacokinetics: exposure of tonabersat in plasma after oral or intravenous dosing of prodrugs to rats. The data set is classed as in vivo. The settings on record: fasted male Sprague Dawley rats; for % exposure of tonabersat after dosing the prodrugs of the invention via: Intravenous dosing (iv): compared to equimolar amount of tonabersat (0.78 mg/kg intravenous dosing); for % exposure of tonabersat after dosing the prodrugs of the invention via: Oral dosing (po): compared to equimolar amount of tonabersat (5.00 mg/kg oral dosing). The protocol: Example Prodrugs of the claimed invention were dosed either intravenously or orally to fasted male Sprague Dawley rats. The rats underwent surgery for jugular vein cannulation 48 h prior to dosing. Following dosing, 0.25 mL blood samples were taken via the cannulae at 0, 5, 10, 20, 30, 45, 60, 120, 240 & 360 min in EDTA coated tubes. Tubes were spun at 13,000 rpm for 4 min and 100 ul of supernatant taken immediately and stored at −80° C. prior to analysis. Plasma samples were analysed by LC-MS/MS following extraction by protein precipitation, and levels of parent prodrug and tonabersat were measured by MRM (Multiple Reaction Monitoring) analysis against an extracted calibration curve of plasma samples spiked with the Example prodrug and tonabersat.
The exposure of tonabersat in plasma following dosing of the prodrugs of the invention was compared directly to the exposure observed following dosing of an equimolar amount of tonabersat under analogous assay conditions (5.00 mg/kg oral dosing or 0.78 mg/kg intravenous dosing). In an embodiment prodrugs of the present invention have >10% exposure of tonabersat obtained following either oral or intravenous dosing of the prodrug to a human or animal subject, compared to the exposure obtained from dosing an equimolar amount of tonabersat itself. In an embodiment the exposure of tonabersat following dosing of the prodrugs is >20%, or >30%, or >40%, or >50%, or preferably >70% compared to the exposure obtained from dosing an equimolar amount of tonabersat itself.

Data set [5] deals with unique stereo-selective site in rat and human brains. The settings on record: cited from earlier work.
For data set [6] the test system is unchanged. The following applies: cited from earlier work. The source holds these as a separate data set.
In data set [7] the test system is high K+ evoked CSD. The settings on record: cats; cited from earlier work.
The test system of data set [8] is high K+ evoked CSD. The settings on record: rats; cited from earlier work.

T1 sequence (Q12809 whole entry): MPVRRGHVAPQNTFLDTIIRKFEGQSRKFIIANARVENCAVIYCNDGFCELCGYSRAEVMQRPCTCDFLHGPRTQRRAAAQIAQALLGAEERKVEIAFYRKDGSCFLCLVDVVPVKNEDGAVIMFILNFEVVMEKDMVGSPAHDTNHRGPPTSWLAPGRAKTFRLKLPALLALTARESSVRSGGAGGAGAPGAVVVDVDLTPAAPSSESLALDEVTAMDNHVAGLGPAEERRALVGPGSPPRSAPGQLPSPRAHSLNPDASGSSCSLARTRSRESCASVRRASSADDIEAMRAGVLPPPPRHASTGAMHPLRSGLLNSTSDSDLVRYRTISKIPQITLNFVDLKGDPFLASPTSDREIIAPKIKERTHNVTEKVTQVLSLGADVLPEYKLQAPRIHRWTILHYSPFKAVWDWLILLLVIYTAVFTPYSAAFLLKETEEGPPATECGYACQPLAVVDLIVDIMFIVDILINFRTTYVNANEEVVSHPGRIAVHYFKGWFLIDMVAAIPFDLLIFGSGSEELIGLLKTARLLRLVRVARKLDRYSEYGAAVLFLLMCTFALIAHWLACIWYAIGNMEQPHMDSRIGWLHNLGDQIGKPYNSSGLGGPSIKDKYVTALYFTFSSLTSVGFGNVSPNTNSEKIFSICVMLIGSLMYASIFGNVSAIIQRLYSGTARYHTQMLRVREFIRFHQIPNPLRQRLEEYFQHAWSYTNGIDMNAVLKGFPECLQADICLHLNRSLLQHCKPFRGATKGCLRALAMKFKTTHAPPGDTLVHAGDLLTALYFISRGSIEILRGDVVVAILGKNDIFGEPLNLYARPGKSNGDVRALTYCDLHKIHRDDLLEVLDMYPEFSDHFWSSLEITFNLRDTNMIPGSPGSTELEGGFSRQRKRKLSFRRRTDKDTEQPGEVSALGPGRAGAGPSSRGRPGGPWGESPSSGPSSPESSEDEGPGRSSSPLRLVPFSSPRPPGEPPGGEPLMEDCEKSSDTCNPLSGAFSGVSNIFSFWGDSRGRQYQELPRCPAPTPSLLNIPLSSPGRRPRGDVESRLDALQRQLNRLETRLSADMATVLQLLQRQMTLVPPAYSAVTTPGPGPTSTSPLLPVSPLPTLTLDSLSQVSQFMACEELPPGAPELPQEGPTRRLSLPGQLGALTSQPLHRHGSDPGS
T2 sequence (Q12809 whole entry): as above

For the molecule `CC(=O)c1ccc2c(c1)[C@H](NC(=O)c1ccc(F)c(Cl)c1)[C@H](OC(=O)OCCN(C)C)C(C)(C)O2` [Example 1, (3S,4S)-6-Acetyl-4-[(3-chloro-4-fluorobenzene)amido]-2,2-dimethyl-3,4-dihydro-2H-1-benzopyran-3-yl 2-(dimethylamino)ethyl carbonate], the solubility in data set [1] (aqueous buffer, pH not given) was under 1000 µg/mL. In data set [2], the pIC50 was under 4.70. For the same molecule, testing at 11 µM in data set [3] gave an inhibition of 25%.
For the molecule `CC(=O)c1ccc2c(c1)[C@H](NC(=O)c1ccc(F)c(Cl)c1)[C@H](OC(=O)OCCN1CCOCC1)C(C)(C)O2` [Example 4, (3S,4S)-6-Acetyl-4-[(3-chloro-4-fluorobenzene)amido]-2,2-dimethyl-3,4-dihydro-2H-1-benzopyran-3-yl 2-(morpholin-4-yl)ethyl carbonate], in data set [1] (aqueous buffer, pH not given), the solubility was under 1000 µg/mL. In addition, in data set [2], the pIC50 is 5.01.
As to `CC(=O)c1ccc2c(c1)[C@H](NC(=O)c1ccc(F)c(Cl)c1)[C@H](OC(=O)N[C@H](C(=O)O)C(C)C)C(C)(C)O2` [Example 8, (2S)-2-[({[(3S,4S)-6-Acetyl-4-[(3-chloro-4-fluorobenzene)amido]-2,2-dimethyl-3,4-dihydro-2H-1-benzopyran-3-yl]oxy}carbonyl)amino]-3-methylbutanoic acid], in data set [4], the “% exposure of tonabersat after dosing the prodrugs of the invention via: Intravenous dosing (iv)” value (from here on “% exposure of tonabersat … (iv)”) is recorded as “<LLOQ” and the “% exposure of tonabersat after dosing the prodrugs of the invention via: Oral dosing (po)” value (from here on “% exposure of tonabersat … (po)”) is listed as “<LLOQ”. The solubility in data set [1] (aqueous buffer, pH not given) is under 1000 µg/mL.
Turning to `CC(=O)c1ccc2c(c1)[C@H](NC(=O)c1ccc(F)c(Cl)c1)[C@H](OC(=O)N[C@@H](CCCCN)C(=O)O)C(C)(C)O2.Cl` [Example 9, (2S)-2-[({[(3S,4S)-6-acetyl-4-[(3-chloro-4-fluorobenzene)amido]-2,2-dimethyl-3,4-dihydro-2H-1-benzopyran-3-yl]oxy}carbonyl)amino]-6-aminohexanoic acid hydrochloride], in data set [4], the “% exposure of tonabersat … (iv)” value is recorded as “<LLOQ” and the “% exposure of tonabersat … (po)” value was “<LLOQ”. In data set [1] (pH 4.9, aqueous buffer), the solubility is 10000 µg/mL. In data set [3], this molecule returned an inhibition at 11 µM of 8%.
Take `CC(=O)c1ccc2c(c1)[C@H](NC(=O)c1ccc(F)c(Cl)c1)[C@H](OC(=O)N1CCC(N3CCCCC3)CC1)C(C)(C)O2.Cl` [Example 18, (3S,4S)-6-Acetyl-4-[(3-chloro-4-fluorobenzene)amido]-2,2-dimethyl-3,4-dihydro-2H-1-benzopyran-3-yl 4-(piperidin-1-yl)piperidine-1-carboxylate hydrochloride]: in data set [4], the “% exposure of tonabersat … (iv)” value was “<LLOQ” and the “% exposure of tonabersat … (po)” value is reported as “<LLOQ”. In addition, in data set [1] (pH 6.3, aqueous buffer), the solubility was over 10000 µg/mL. The inhibition at 11 µM in data set [3] came to 28%.
As to `CC(=O)c1ccc2c(c1)[C@H](NC(=O)c1ccc(F)c(Cl)c1)[C@H](OC(=O)OCCN1CCCCC1)C(C)(C)O2` [Example 30, (3S,4S)-6-Acetyl-4-[(3-chloro-4-fluorobenzene)amido]-2,2-dimethyl-3,4-dihydro-2H-1-benzopyran-3-yl 2-(piperidin-1-yl)ethyl carbonate], in data set [2], the negative-log IC50 (pIC50) is 5.15.
For the molecule `CC(=O)c1ccc2c(c1)[C@H](NC(=O)c1ccc(F)c(Cl)c1)[C@H](O)C(C)(C)O2` [Tonabersat, N-[(3S,4S)-6-Acetyl-3-hydroxy-2,2-dimethyl-3,4-dihydro-2H-1-benzopyran-4-yl]-3-chloro-4-fluorobenzamide], the “binding affinity to brain site” value in data set [5] and in data set [6] was “high affinity” in each case. In addition, the “inhibition of high K+ evoked CSD” value in data set [7] and in data set [8] was “inhibits” in each case.
